± gives the standard deviation of the reports.

For `*/C(=C(/*)c1ccc[c]([Ge]([CH3])([CH3])[CH3])c1)c1ccccc1` (repeat unit), the glass transition temperature came out at 200.00 °C.
Under `*/C(=C/c1cc(OC)c(/C=C(\c2ccccc2)c2ccc(-c3ccc(*)cc3)cc2)cc1OC)c1ccccc1` (repeat unit) stands 223.00 °C; under `*/C(C#N)=C/c1cc(OCC(CC)CCCC)c(/C=C(\C#N)c2ccc3c4ccc(*)cc4n(CC(CC)CCCC)c3c2)cc1OCC(CC)CCCC` (repeat unit), 72.00 °C; under `*/C(C#N)=C/c1cc(OCCCCCCCCCCCCCCCC)c(/C=C(\C#N)c2cc(OCCCCCCCCCCCCCCCC)c(*)cc2OC)cc1OC` (repeat unit), 190.00 °C.
Under `*/C=C(/c1ccc(*)cc1)c1ccc(C(F)(F)F)cc1` (repeat unit) stands 199.00 °C; under `*/C=C(\C#N)C(=O)NC1CCCCC1NC(=O)/C(C#N)=C/c1ccc(/C=C/c2ccc(N(c3ccccc3)c3ccc(N(c4ccccc4)c4ccc(/C=C/c5ccc(*)s5)cc4)cc3)cc2)s1` (repeat unit), 240.00 °C; under `*/C=C(\C#N)c1cccc(/C(C#N)=C/c2ccc(/C=C/c3ccc(N(c4ccccc4)c4ccc(N(c5ccccc5)c5ccc(/C=C/c6ccc(*)s6)cc5)cc4)cc3)s2)c1` (repeat unit), 178.00 °C.
Under `*/C=C/C(C(=O)OCC)C(*)C(=O)OCC` (repeat unit) stands 6.00 °C; under `*/C=C/C1C/C(=C\C)C(*)C1` (repeat unit), 121.00 °C; under `*/C=C/C1CC(*)C(C(=O)OC)C1C(=O)OC` (repeat unit), 77.30 °C.
`*/C=C/C1CC(*)C(C(=O)OCCCCCCCCCCCOc2ccc(-c3ccc(C#N)cc3)cc2)C1C(=O)OCCCCCCCCCCCOc1ccc(-c2ccc(C#N)cc2)cc1` (repeat unit) had a glass transition temperature of 23.10 °C.
For `*/C=C/C1CC(*)C(C(=O)OCCCCCCOc2ccc(-c3ccc(C#N)cc3)cc2)C1C(=O)OCCCCCCOc1ccc(-c2ccc(C#N)cc2)cc1` (repeat unit) the value was 55.80 °C; for `*/C=C/C1CC(*)C2C(=O)N(CCCC)C(=O)C12` (repeat unit), 131.00 °C.
On to `*/C=C/C1CC(*)C2C(=O)N(CCCCC)C(=O)C12` (repeat unit), for which the glass transition temperature was determined as 99.00 °C.
For `*/C=C/C1CC(*)C2C(=O)N(CCCCCC)C(=O)C12` (repeat unit) the value was 87.00 °C; for `*/C=C/C1CC(*)C2C(=O)N(CCCCCCCC)C(=O)C12` (repeat unit), 56.50 °C; for `*/C=C/C1CC(*)C2C(=O)N(CCCCCCCCC)C(=O)C12` (repeat unit), 52.00 °C.
`*/C=C/c1sc(-c2ccc(-c3ccc(-c4sc(/C=C/C5=CC(=C(C#N)C#N)C=C(*)O5)c(CCCCCC)c4CCCCCC)s3)s2)c(CCCCCC)c1CCCCCC` (repeat unit) yielded a glass transition temperature of 112.00 °C.
Under `*/C=C/c1sc(-c2ccc3c(c2)C(CCCCCC)(CCCCCC)c2cc(-c4sc(/C=C/C5=CC(=C(C#N)C#N)C=C(*)O5)c(CCCCCC)c4CCCCCC)ccc2-3)c(CCCCCC)c1CCCCCC` (repeat unit) stands 115.00 °C; under `*C(*)C(=O)OC(C)C` (repeat unit), 70.00 °C; under `*C(*)C(=O)OC1CCCCC1` (repeat unit), 140.00 °C.
For `*C(*)C(=O)OCCC` (repeat unit) the value was -15.00 °C; for `*C(F)(F)C(*)(F)c1ccccc1` (repeat unit), 206.00 °C; for `*C(F)(F)C1(*)OC(F)(C(F)(F)F)C(F)(C(F)(F)F)O1` (repeat unit), 165.00 °C.
As for `*C(OC(F)(F)F)C(*)(F)F` (repeat unit), the glass transition temperature is -10.00 °C.
In turn, `*C([2H])([2H])C(*)([2H])C([2H])=C([2H])[2H]` (repeat unit) came in with a glass transition temperature of 1.00 °C.
Consider `*C([2H])([2H])C(*)([2H])c1c([2H])c([2H])c([2H])c([2H])c1[2H]` (repeat unit), for which the glass transition temperature amounted to 97.00 °C.
Under `*C/C=C(\C)C(C)S(*)(=O)=O` (repeat unit) stands 73.00 °C; under `*C/C=C(\C)CS(*)(=O)=O` (repeat unit), 88.20 °C.
Under `*C1(F)OC(C(F)(F)F)(C(F)(F)Cl)OC1(*)F` (repeat unit) stands 330.00 °C.
Under `*C1=C(c2ccc(-c3ccc4c(c3)C(CCCCCC)(CCCCCC)c3cc(-c5ccc(*)cc5)ccc3-4)cc2)C(=O)N(CCCCCCCCCCCC)C1=O` (repeat unit) stands 100.00 °C; under `*C1C(*)C2CC1C1C=CCC12` (repeat unit), 145.00 °C.
For `*C1C(=O)N(CCCCCCCOc2ccc(-c3ccc(C#N)cc3)cc2)C(=O)C1*` (repeat unit), the glass transition temperature stood at 61.00 °C.
The compound `*C1C(=O)N(CCCCCCOc2ccc(-c3ccc(C#N)cc3)cc2)C(=O)C1*` (repeat unit) came in with a glass transition temperature of 76.00 °C.
Under `*C1C(=O)N(CCCCOc2ccc(-c3ccc(C#N)cc3)cc2)C(=O)C1*` (repeat unit) stands 115.00 °C; under `*C1C(=O)N(c2ccc(O[Si](CC)(CC)CC)cc2)C(=O)C1*` (repeat unit), 165.00 °C.
Under `*C1C(=O)N(c2ccccc2C)C(=O)C1*` (repeat unit) stands 335.00 °C; under `*C1C(=O)OC(=O)C1C1C2CC(C(=O)OC3CCCCC3)C(C2)C1*` (repeat unit), 195.00 °C.
For `*C1C(=O)OC(=O)C1C1C2CC(C(=O)OCCOCC)C(C2)C1*` (repeat unit) the value was 155.00 °C; for `*C1C2CC(C(=O)OCCc3ccc(N(c4ccccc4)c4ccccc4)cc3)C(C2)C1*` (repeat unit), 307.00 °C.
`*C1C2CC(CCCCc3ccccc3)C(C2)C1*` (repeat unit): the glass transition temperature came to 148.00 °C.
For `*C1CC(*)(C#N)C1` (repeat unit) the value was 220.00 °C; for `*C1CC2CC1C(*)C2CCCC` (repeat unit), 235.00 °C.
The compound `*C1CC2CC1C(*)C2CCCCCC` (repeat unit) came in with a glass transition temperature of 252.00 °C.
For `*C1CCOC1*` (repeat unit) the value was 131.00 °C.
Under `*C1OCCCC1C1C(=O)OC(=O)C1*` (repeat unit) stands 210.00 °C; under `*C1c2cccc3cccc(c23)C1*` (repeat unit), 250.00 °C; under `*CC(C)(/C=C(/*)C)C(=O)OC` (repeat unit), 24.00 °C.
For `*CC(O)COC(=O)CCCCCCCCC(=O)OCC(O)COc1ccc(/C=C(\C)c2ccc(O*)cc2)cc1` (repeat unit) the value was 30.00 °C; for `*CC/C=C(/*)CCCCCCCCCC` (repeat unit), -53.00 °C; for `*CCC/C=C(/*)c1ccccc1` (repeat unit), 0.00 °C.
For the compound `*CCCCCCCCCCOc1c(OC)cc(/C=C2\CCC/C(=C\c3cc(OC)c(O*)c(OC)c3)C2=O)cc1OC` (repeat unit), the glass transition temperature stood at 49.00 °C.
With `*CCCCCCCCOc1ccc(/C=C2\CCC/C(=C\c3ccc(O*)c(OC)c3)C2=O)cc1OC` (repeat unit), the glass transition temperature was determined as 72.00 °C.
Under `*CCCCOC(=O)C(Cc1ccccc1)NC(=O)/C=C/C(=O)NC(Cc1ccccc1)C(=O)O*` (repeat unit) stands 103.00 °C; under `*CCOc1ccc(/C=C2\CC/C(=C\c3ccc(OCCOP(=O)(O*)OC)c(OC)c3)C2=O)cc1OC` (repeat unit), 99.00 °C.
For `*NNC(=O)/C=C/C(=O)NCCCCCCNC(=O)/C=C/C(*)=O` (repeat unit) the value was 102.40 °C.
Regarding `*NNC(=O)/C=C/C(=O)Nc1cccc(/C=C2\CCC/C(=C\c3cccc(NC(=O)/C=C/C(*)=O)c3)C2=O)c1` (repeat unit), the glass transition temperature was determined as 238.40 °C.
Under `*OC(=O)/C=C/C(=O)OC1COC2C(*)COC12` (repeat unit) stands 60.00 °C; under `*Oc1ccc(/C(=C/c2cc(OC)c(/C=C(/c3ccc(*)cc3)c3ccc(F)cc3)cc2OC)c2ccc(F)cc2)cc1` (repeat unit), 187.00 °C; under `*Oc1ccc(/C=C2\CC/C(=C\c3ccc(OC(=O)c4ccc(/N=C/c5ccc(/C=N/c6ccc(C(*)=O)cc6)cc5)cc4)c(OC)c3)C2=O)cc1OC` (repeat unit), 140.00 °C.
For `*Oc1ccc(/C=C2\CCC/C(=C\c3ccc(OC(=O)CCCCCCCCC(*)=O)c(OC)c3)C2=O)cc1OC` (repeat unit) the value was 48.1 °C; for `*Oc1ccc(NC(=O)/C=C/C(=O)NNC(=O)/C=C/C(=O)Nc2ccc(OC(=O)c3ccccc3C(=O)NNC(=O)c3ccccc3C(*)=O)cc2)cc1` (repeat unit), 240.00 °C; for `*c1ccc(/C=C(\C#N)C(=O)NC2CCCCC2NC(=O)/C(C#N)=C/c2ccc(N(c3ccccc3)c3ccc(N(*)c4ccccc4)cc3)cc2)cc1` (repeat unit), 239.00 °C.
`*c1ccc(Oc2ccc(Oc3ccc(Oc4ccc(N5C(=O)C6CCC(C7CCC8C(=O)N(*)C(=O)C8C7)CC6C5=O)cc4)cc3)cc2)cc1` (repeat unit) came in with a glass transition temperature of 217.00 °C.
For `*c1ccc(Oc2cccc(Oc3ccc(N4C(=O)c5ccc(-c6cccc7c6C(=O)N(*)C7=O)cc5C4=O)cc3)c2)cc1` (repeat unit) the value was 248.00 ± 25 °C; for `*c1cccc(N2C(=O)c3ccc(-c4ccc5c(c4)C(=O)N(*)C5=O)cc3C2=O)c1` (repeat unit), 333.2 ± 39 °C.
For `*c1cccc(Oc2cccc(Oc3cccc(N4C(=O)c5ccc(-c6ccc7c(c6)C(=O)N(*)C7=O)cc5C4=O)c3)c2)c1` (repeat unit) the value was 205.00 ± 3 °C.

These data come from the PolyMetriX glass transition set.
